Measured values from US10934332B2, “Structure-based peptide inhibitors that target the Tau VQIINK fibrillization segment” (THE REGENTS OF THE UNIVERSITY OF CALIFORNIA, priority 2017, dated 2021).
pIC50: −log10 of the molar value. Read-outs that look alike come from different tables or passages of the source. No end group written: not given here.

Legend:
[1] = system: Full-length Tau-YFP biosensor cells seeded with pre-formed Tau40 fibers; type: cell-based, human; conditions: for inhibition of seeding by pre-formed Tau40 fibers (in words): pre-formed Tau40 fibrils incubated with inhibitor before applying to biosensor cells
Description: To test whether VQIINK (SEQ ID NO: 11) inhibitors can cap pre-formed fibers to block their spread, Tau40 amyloid fibrils were incubated with varying concentrations of inhibitor before applying to biosensor cells and measuring seeding. In addition, a third VQIINK (SEQ ID NO: 11) inhibitor, RINK which contains an Arg at position 4, was also tested.
(§1) Engineered HEK293 cell lines stably expressing Tau40-YFP P301S, referred to as “tau biosensor cells” were engineered by Marc Diamond's lab at UTSW. Cells were maintained in DMEM (Life Technologies, cat. 11965092) supplemented with 10% (vol/vol) FBS (Life Technologies, cat. A3160401), 1% penicillin/streptomycin (Life Technologies, cat. 15140122), and 1% Glutamax (Life Technologies, cat. 35050061) at 37° C., 5% CO2 in a humidified incubator. Tau40 aggregates were prepared in PBS (pH 7.4) with 1 mM DTT by shaking 25 μM Tau40 with 0.5 mg/ml heparin in the presence or absence inhibitor peptide, as indicated. Fibers were sonicated in a cuphorn water bath for 3 minutes before seeding cells. For seeding, fibers were diluted in OptiMEM (Life Technologies, cat. 31985070) and transfected using Lipofectamine 2000 (Life Technologies, cat. 11668027) according to the manufacturer's instructions. After seeding, cells were imaged using a ZEISS Axio Observer D1 fluorescence microscope using the YFP fluorescence channel and Tau aggregates were counted in ImageJ software.

[2] = system: HEK293 biosensor cells stably expressing full-length Tau 4R1N P301S-EYFP; assay: Biosensor cell seeding with Tau40 fiber grown in the presence of inhibitor; type: cell-based, human; conditions: cells seeded with 125 nM Tau40 fiber grown with two-fold excess of inhibitor; about 61% in the absence of inhibitor
Text: Cells seeded with Tau40 fiber grown with MINK or WINK reduced the percentage of seeded cells to 23 and 41%, respectively.
as §1

[3] = biological target: T1, Tau40 (Homo sapiens, UniProt P10636); assay: ThT assay of Tau40 fibril formation; type: biochemical; conditions: heparin, shaking 700 rpm, 37° C.
T1 construct: Human Tau40 (residues 1-441) was expressed in pET28b; His-tag (C); made in house; host or cells: BL21-Gold E. coli
Description: The effect on fibril formation of Tau40 of the two resulting VQIINK (SEQ ID NO: 11) inhibitors, MINK (which contains a Met at position 4 to disrupt interface A) and WINK (which instead contains a Trp) was evaluated in vitro using a ThT assay.
Human Tau40 (residues 1-441) was expressed in pET28b with a C-terminal His-tag in BL21-Gold E. coli cells grown in TB to an OD600=0.8. Cells were induced with 0.5 mM IPTG for 3 hours at 37° C. and lysed by sonication in 50 mM Tris (pH 8.0) with 500 mM NaCl, 20 mM imidazole, 1 mM beta-mercaptoethanol, and HALT protease inhibitor. Cells were lysed by sonication, clarified by centrifugation at 15,000 rpm for 15 minutes, and passed over a 5 ml HisTrap affinity column. The column was washed with lysis buffer and eluted over a gradient of imidazole from 20 to 300 mM. Fractions containing purified Tau40 were dialyzed into 50 mM MES buffer (pH 6.0) with 50 mM NaCl and 1 mM beta-mercaptoethanol and purified by cation exchange as described for K18. Peak fractions were polished on a HiLoad 16/600 Superdex […] in 1×PBS (pH 7.4), and concentrated to ˜20-60 mg/ml by ultrafiltration using a 10 kDa cutoff.
Concentrated Tau protein was diluted into PBS buffer (pH 7.4) to a final concentration as indicated in the text. Proteins were shaken as solutions containing 75 μM ThT, 0.5 mg/ml heparin, 1 mM DTT, and a two-fold molar excess of inhibitor (when indicated) in 96-well plates with a plastic bead to enhance agitation. ThT fluorescence was measured with excitation and emission wavelengths of 440 and 480 nm, and averaged curves were generated from duplicate measurements.

[4] = 10 μM Tau40, two-fold mole excess of inhibitor
[5] = 25 μM Tau40, two-fold mole excess of inhibitor

T1 sequence (P10636 1-441 isoform P10636-8): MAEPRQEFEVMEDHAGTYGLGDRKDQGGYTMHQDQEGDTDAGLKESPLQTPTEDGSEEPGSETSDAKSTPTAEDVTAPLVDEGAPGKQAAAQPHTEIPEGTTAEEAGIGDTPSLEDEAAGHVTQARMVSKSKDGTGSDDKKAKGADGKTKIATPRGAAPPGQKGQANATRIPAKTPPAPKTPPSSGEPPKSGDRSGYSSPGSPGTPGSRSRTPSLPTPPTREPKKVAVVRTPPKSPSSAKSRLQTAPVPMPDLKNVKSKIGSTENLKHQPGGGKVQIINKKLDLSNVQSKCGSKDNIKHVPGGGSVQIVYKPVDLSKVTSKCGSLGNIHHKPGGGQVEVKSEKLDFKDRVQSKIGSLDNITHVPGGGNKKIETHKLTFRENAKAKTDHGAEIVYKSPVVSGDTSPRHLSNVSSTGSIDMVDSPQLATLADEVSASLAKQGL

Substance	pIC50 [1]	seeding by Tau40 fibers in biosensor cells (fluorescence images) ([1]; 5 μM inhibitor)	seeding by Tau40 fibers in biosensor cells (fluorescence images) ([1]; 25 μM inhibitor)	inhibition of seeding by pre-formed Tau40 fibers (in words) [1]	percentage of seeded cells (cells with intracellular aggregates) [2]	Tau40 fibril formation (ThT fluorescence) [3, 4]	Tau40 fibril formation (ThT fluorescence) [3, 5]
DVWMINKKRK [W-MINK, DVWMINKKRK]	5.05	Tau40 fibers are still able to induce seeding	seeding by Tau40 fibers is no longer observed				
DVQWINKKRK [WINK, DVQWINKKRK]	4.60			inhibit seeding by Tau40 fibers in a concentration dependent fashion	41%	reducing the amount of Tau40 aggregation to about half	reduced Tau40 aggregation to about half
DVQRINKKRK				inhibited more poorly than MINK and WINK			
W-WINK: Phase 2 inhibitor: WINK incorporating a Trp steric clash at position 3 (DVWWINKKRK)				performed more poorly than W-MINK			
DVQMINKKRK [MINK, DVQMINKKRK]	4.66			inhibit seeding by Tau40 fibers in a concentration dependent fashion	23%	completely inhibiting any detectable Tau40 fibril formation for at least 60 hours	reduced Tau40 aggregation to about half
